Results as given in US20120071475A1, “UREA DERIVATIVES HAVING PI3K-INHIBITING ACTIVITY” (SHIONOGI & CO., LTD., priority 2009, published 2012).

Legend:
PI3Kγ = PI3Kγ (Homo sapiens, UniProt P48736); assay: PI3Kγ inhibitory activity (PI3-kinase HTRF assay, inhibition ratio); format: biochemical; settings: 0.5 h, compound at 10 μmol/L; read-out: PI3Kg Inhibition Ratio % (10 μM)
Summary of the method: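 Compound at 10 μmol/L preincubated 10 min with PI3Kγ and PIP2 substrate, then reacted with ATP for 30 minutes at room temperature; the compound, substrate and ATP figures as printed (40 μmol/L each) are solution concentrations. HTRF 665/620 nm ratio read after 18 hours. Inhibition ratio calculated against no-compound (100%) and no-enzyme (0%) controls.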

AKT phosphorylation = AKT phosphorylation inhibitory activity in MCP-1 stimulated THP-1 cells (sandwich ELISA); format: cell-based, Human; settings: Homo sapiens, compound at 1 μmol/L, MCP-1 stimulation, read-out: AKT phosphorylation inhibition ratio
Description: (1) The AKT phosphorylation inhibitory activity of a compound was evaluated according to the following procedure. (2) Human monocyte-like cell line THP-1 was washed with RPMI-1640 media, incubated in the presence of 5% CO2 at 37° C. for 3 hours, washed with Hank's balanced salt solution (HBSS), adjusted to a cell concentration of 6.7×10^6/mL, and then used in an experiment. (3) 30 μL of the cell suspension and 60 μL of each compound solution containing 0.2% DMSO/HBSS were mixed and then preincubated at 37° C. for 5 minutes. 30 μL of HBSS containing 1.2 μg/mL of MCP-1 was added thereto and then incubated for 60 seconds at 37° C. (4) 30 μL of a cell lysate (the final concentrations: 20 mmol/L Tris-HCl (pH 7.5), 150 mmol/L NaCl, 1 mmol/L EDTA, 1 mmol/L EDTA, 1% Triton X-100, 2.5 mmol/L sodium pyrophosphate, 1 mmol/L β-glycerophosphate, 1 mmol/L Na3VO4, 1 μg/ml leupeptin, 50 nmol/L APMSF) was added thereto to lyse cells. (5) The amount of AKT phosphorylation in the cell solution was measured by sandwich ELISA method using anti-Phospho-Akt (Ser473) antibody and anti-AKT1 antibody. (6) Anti-Phospho-Akt (Ser473) antibodies or anti-AKT1 antibodies were immobilized onto the solid phase of a micro well plate. The prepared cell lysate was added to the micro well plate, incubated, and then washed with ELISA wash solution. (7) An anti-AKT1 antibody or anti-Phospho-Akt (Ser473) antibody, which forms a counterpart to an antibody immobilized on the solid phase, was added thereto, incubated, washed similarly, and then reacted with an HRP-labeled anti-mouse IgG antibody. (8) After incubating for 30 minutes and then washing similarly, 100 μL of TMB (3,3′,5,5″-tetramethylbenzidine) was added thereto, followed by reacting for 30 minutes. (9) 100 μL of stop solution was added to quench the color reaction, and then the absorbance at 450 nm was measured. (10) The amount of AKT phosphorylation in a sample in the absence of a compound was defined as 100% activity, and the amount of AKT phosphorylation in a sample in the absence of MCP-1 was defined as 0% activity to calculate an inhibition ratio of each compound. The measurement was performed for a 1 μmol/L solution of each compound.

CYP3A4 = target: T1, CYP3A4 (Homo sapiens, UniProt P08684); assay: CYP3A4 fluorescence MBI test; format: in vitro ADME; settings: difference in IC50 with 0 or 30 minutes pre-reaction; CYP3A4 expressed in E. coli, substrate 7-BFC
T1 construct: host or cells: E. coli
Description: The CYP3A4 fluorescence MBI test is a test to examine the enhancement of CYP3A4 inhibition of a compound by a metabolic reaction. The test was performed using as an index, a reaction to produce a metabolite 7-hydroxytrifluoromethylcoumarin (HFC) which emits fluorescence, in which CYP3A4 expressed in E. coli was used as an enzyme and 7-benzyloxytrifluoromethylcoumarin (7-BFC) is debenzylated by CYP3A4 enzyme.
The reaction conditions are as follows: substrate: 5.6 μmol/L 7-BFC; pre-reaction time; 0 or 30 minutes; reaction time: 15 minutes; reaction temperature: 25° C. (room temperature); content of CYP3A4 (an enzyme expressed in E. coli): […] at the time of a pre-reaction and […] (when diluted 10 times) at the time of a reaction; the concentrations of a test drug: 0.625, 1.25, 2.5, 5, 10, and 20 μmol/L (6 points).
In a 96-well plate, an enzyme solution and a test drug solution were added as a pre-reaction solution into K-Pi buffer solution (pH 7.4) in the aforementioned ratio. A portion thereof was transferred to another 96-well plate to be diluted ten times with a substrate and a K-Pi buffer solution. A coenzyme, NADPH, was then added to start a reaction, which is the index (this is without a pre-reaction). After reacting for a predetermined time, 4:1 of acetonitrile: 0.5 mol/L Tris (trishydroxyaminomethane) was added to quench the reaction. To the remaining pre-reaction solution, NADPH was added to start a pre-reaction (this is with a pre-reaction). After pre-reacting for a predetermined time, a portion thereof was transferred to another plate to be diluted ten times with a substrate and K-Pi buffer solution, and thereby the index reaction is started. After reacting for a predetermined time, 4:1 of acetonitrile:0.5 mol/L Tris (trishydroxyaminomethane) was added to quench the reaction. For each plate in which the index reaction was carried out, the fluorescence value of a metabolite 7-HFC was measured with a fluorescent plate reader (Ex=420 nm, Em=535 nm).
The case wherein only DMSO (a solvent which dissolved a drug) was added to a reaction system was defined as a control (100%). When a test drug solution was added, the remaining activity (%) at each concentration was calculated, and then IC50 was calculated with a concentration and an inhibition ratio by an inverse estimation using a logistic model. When the difference in IC50 value is 5 μmol/L or more, the compound is shown as (+). When 3 μmol/L or less, the compound is shown as (−).

[1] = Metabolic stability test (pooled human liver microsome); format: in vitro ADME; settings: percentage of test compound remained after 30 minutes, pooled human liver microsome 0.5 mg protein/mL, 1 mmol/L NADPH, 37° C., compound 0.5 μM
Summary of the method: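 Pooled human liver microsomes (0.5 mg protein/mL) incubated with compound and 1 mmol/L NADPH at 37° C. in pH 7.4 Tris buffer for 0 or 30 min. Parent quantified by LC/MS/MS after methanol/acetonitrile quench; value is % remaining at 30 min versus 0 min.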

hERG channel (IKr) = target: T2, hERG channel (IKr) (Homo sapiens, UniProt Q12809); assay: hERG test (whole-cell patch-clamp, IKr in HEK293 cells); format: cell-based; settings: human, HEK293 cells expressing hERG channel, pH 7.4, inhibition of maximum tail current (IKr), compound 1 μM
T2 construct: expressed in transfected cells; host or cells: HEK293
Excerpt: For the purpose of risk evaluation of QT interval extension of electrocardiogram, the activity on delayed rectification K^+ current (IKr), which plays an important role in a cardiac ventricle repolarization process, was examined using the HEK293 cell that was made to express human ether-a-go-go related gene (hERG) channel.
Using an automatic patch-clamp system (PatchXpress 7000A, Axon Instruments Inc.), by a whole-cell patch-clamp method, after the cell was maintained at a membrane potential of −80 mV, IKr induced upon applying depolarizing stimulation of +50 mV for 2 seconds and further applying repolarizing stimulation of −50 mV for 2 seconds was recorded. After generated electric current became stable, a test substance dissolved at an intended concentration in extracellular fluid (137 mmol/L NaCl, 4 mmol/L KCl, 1.8 mmol/L CaCl2.2H2O, 1 mmol/L MgCl2.6H2O, 10 mmol/L glucose, 10 mmol/L HEPES (4-(2-hydroxyethyl)-1-piperazineethanesulfonic acid), pH=7.4) was applied to the cell for 10 minutes under room temperature condition. From the obtained IKr, the absolute value of the maximum tail current was measured using analysis software (DataXpress ver. 1, Molecular Devices Corporation) and the value of the electric current in a maintained membrane potential as baseline. Moreover, an inhibition ratio for the maximum tail current prior to the application of the test substance was calculated and then compared with a group of media-application (0.1% dimethylsulfoxide solution) to evaluate influence of the test substance on IKr.

T2 sequence (Q12809 whole entry): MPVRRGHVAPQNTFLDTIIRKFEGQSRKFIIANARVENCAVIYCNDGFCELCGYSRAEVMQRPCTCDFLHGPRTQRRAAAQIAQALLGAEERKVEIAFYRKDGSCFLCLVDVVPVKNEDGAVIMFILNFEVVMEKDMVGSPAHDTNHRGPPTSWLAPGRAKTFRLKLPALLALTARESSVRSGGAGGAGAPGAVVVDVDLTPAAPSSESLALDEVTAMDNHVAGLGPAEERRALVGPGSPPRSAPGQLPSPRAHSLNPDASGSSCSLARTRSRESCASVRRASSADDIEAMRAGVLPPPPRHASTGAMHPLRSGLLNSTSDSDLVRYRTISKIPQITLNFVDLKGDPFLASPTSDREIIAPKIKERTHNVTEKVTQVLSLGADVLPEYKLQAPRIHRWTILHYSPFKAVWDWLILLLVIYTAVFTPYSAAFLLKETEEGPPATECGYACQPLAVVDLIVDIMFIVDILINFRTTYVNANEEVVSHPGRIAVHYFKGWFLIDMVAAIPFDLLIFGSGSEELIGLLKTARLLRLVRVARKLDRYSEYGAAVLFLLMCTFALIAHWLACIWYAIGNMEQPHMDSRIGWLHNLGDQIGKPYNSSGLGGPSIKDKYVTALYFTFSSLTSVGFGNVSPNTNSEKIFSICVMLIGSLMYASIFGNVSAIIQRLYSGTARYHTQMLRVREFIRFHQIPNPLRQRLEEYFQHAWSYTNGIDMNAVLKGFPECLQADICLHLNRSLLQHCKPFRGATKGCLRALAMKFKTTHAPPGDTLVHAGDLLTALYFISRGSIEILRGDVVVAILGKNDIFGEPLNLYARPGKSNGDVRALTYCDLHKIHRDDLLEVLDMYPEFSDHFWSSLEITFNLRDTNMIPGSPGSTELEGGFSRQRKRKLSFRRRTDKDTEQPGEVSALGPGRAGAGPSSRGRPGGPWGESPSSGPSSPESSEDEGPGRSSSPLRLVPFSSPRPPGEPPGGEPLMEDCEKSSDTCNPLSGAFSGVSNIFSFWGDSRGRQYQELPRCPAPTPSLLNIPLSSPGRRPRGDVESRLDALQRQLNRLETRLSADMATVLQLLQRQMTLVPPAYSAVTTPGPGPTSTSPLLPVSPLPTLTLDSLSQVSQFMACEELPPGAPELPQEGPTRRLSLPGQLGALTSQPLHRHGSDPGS
Sequence of PI3Kγ (P48736 whole entry, species assumed): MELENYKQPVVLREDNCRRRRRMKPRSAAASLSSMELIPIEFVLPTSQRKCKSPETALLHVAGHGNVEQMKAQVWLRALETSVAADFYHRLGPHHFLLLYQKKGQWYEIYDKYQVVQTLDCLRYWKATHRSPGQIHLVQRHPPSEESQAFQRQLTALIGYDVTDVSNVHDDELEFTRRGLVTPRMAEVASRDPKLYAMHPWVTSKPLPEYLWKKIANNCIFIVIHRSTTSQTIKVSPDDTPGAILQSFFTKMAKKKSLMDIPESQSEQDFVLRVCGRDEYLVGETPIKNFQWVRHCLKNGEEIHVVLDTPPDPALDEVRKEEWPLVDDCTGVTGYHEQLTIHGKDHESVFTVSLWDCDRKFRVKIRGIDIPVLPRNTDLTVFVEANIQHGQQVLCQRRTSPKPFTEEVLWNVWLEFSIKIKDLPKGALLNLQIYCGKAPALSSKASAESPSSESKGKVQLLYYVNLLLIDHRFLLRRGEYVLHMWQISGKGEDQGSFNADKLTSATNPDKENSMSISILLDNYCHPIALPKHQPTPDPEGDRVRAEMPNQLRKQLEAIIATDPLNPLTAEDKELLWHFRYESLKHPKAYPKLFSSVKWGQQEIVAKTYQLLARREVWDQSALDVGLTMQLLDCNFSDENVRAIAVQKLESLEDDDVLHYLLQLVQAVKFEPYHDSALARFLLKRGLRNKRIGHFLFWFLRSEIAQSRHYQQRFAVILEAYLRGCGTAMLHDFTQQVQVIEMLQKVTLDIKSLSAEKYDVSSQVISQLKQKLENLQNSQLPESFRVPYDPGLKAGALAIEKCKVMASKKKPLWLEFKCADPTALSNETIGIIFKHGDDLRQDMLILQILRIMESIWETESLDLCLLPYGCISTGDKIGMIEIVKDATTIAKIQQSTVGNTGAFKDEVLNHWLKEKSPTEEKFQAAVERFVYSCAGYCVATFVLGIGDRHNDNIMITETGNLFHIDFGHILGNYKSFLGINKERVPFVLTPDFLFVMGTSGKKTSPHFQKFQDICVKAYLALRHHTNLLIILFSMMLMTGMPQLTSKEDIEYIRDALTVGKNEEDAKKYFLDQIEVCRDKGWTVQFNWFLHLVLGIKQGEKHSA
T1 sequence (P08684 whole entry): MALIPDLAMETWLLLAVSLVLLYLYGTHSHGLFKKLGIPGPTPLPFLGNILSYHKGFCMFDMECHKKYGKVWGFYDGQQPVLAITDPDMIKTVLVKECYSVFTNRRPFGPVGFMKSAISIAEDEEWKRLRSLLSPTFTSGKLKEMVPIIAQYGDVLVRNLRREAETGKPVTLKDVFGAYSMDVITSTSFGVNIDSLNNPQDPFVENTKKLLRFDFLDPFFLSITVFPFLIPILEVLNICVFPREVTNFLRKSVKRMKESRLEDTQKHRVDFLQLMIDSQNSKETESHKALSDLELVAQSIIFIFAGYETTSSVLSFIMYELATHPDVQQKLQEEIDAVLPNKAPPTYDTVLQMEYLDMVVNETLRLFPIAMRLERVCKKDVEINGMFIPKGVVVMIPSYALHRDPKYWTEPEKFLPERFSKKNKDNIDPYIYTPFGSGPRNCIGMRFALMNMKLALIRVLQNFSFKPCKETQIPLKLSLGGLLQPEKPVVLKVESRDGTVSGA

Structure (SMILES) | inhibition at 10 µM (PI3Kγ) [%] | hLMS_ox(at 0.5 μM) % [1] [%] | inhibition at 1 µM (AKT phosphorylation) [%] | MBI (CYP3A4) | inhibition at 10 min, 1 µM (hERG channel (IKr)) [%]
COC(=O)[C@H](CO)NC(=O)c1nn(C)cc1NC(=O)Nc1nc2c(s1)CN(c1cc(OC)nc(OC)n1)CC2 [Compound I-167] | ≥ 95 | – | ≥ 95 | – | –
[2H]C([2H])([2H])C([2H])(NC(=O)c1ccccc1NC(=O)Nc1nc2c(s1)CN(c1cc(OC)nc(OC)n1)CC2)C([2H])([2H])[2H] [Compound I-153] | ≥ 95 | 83 | ≥ 95 | (−) (When 3 μmol/L or less, the compound is shown as (−)) | –
CC(C)NC(=O)c1ccccc1NC(=O)Nc1nc2c(s1)CN(c1cncc(S(C)(=O)=O)c1)CC2 [Compound I-166] | ≥ 95 | – | 76 | – | 1.8
COc1cc(N2CCc3nc(NC(=O)Nc4ccccc4C(=O)NC(C)C(F)(F)F)sc3C2)nc(OC)n1 (centres unmarked) [Compound I-136] | ≥ 95 | – | 84 | – | –
COc1cc(N2CCc3nc(NC(=O)Nc4ccccc4C(=O)NC(C)C#N)sc3C2)nc(OC)n1 (centres unmarked) [Compound I-159] | 77 | 85.6 | ≥ 95 | – | 3.8
COc1cc(N2CCc3nc(NC(=O)Nc4ccccc4C(=O)NC4CCCOC4)sc3C2)nc(OC)n1 (centres unmarked) [Compound I-160] | ≥ 95 | – | ≥ 95 | – | –
CC(C)NC(=O)c1nn(C)cc1NC(=O)Nc1nc2c(s1)CN(c1cncc(C#N)c1)CC2 [Compound I-205] | ≥ 95 | – | 90 | – | 0.2
COc1cc(N2CCc3nc(NC(=O)Nc4ccccc4C(=O)NC(C)(C)C)sc3C2)nc(OC)n1 [Compound I-7] | 93 | – | 77.6 | – | –
COc1cc(N2CCc3nc(NC(=O)Nc4cn(C)nc4C(=O)N[C@@H](C)CO)sc3C2)nc(OC)n1 [Compound I-155] | 90 | 95.9 | ≥ 95 | – | 2.9

Continued, in another order:

inhibition at 10 µM (PI3Kγ) [%] | hLMS_ox(at 0.5 μM) % [1] [%] | Structure (SMILES) | inhibition at 1 µM (AKT phosphorylation) [%] | MBI (CYP3A4) | inhibition at 10 min, 1 µM (hERG channel (IKr)) [%]
≥ 95 | 94.4 | Cc1cc(N2CCc3nc(NC(=O)Nc4ccccc4C(=O)N[C@H](C)CO)sc3C2)nc(Cl)n1 [Compound I-169] | 75 | – | 2.7
≥ 95 | 85.8 | COc1cc(N2CCc3nc(NC(=O)Nc4ccccc4C(=O)NC4CCOC4)sc3C2)nc(OC)n1 (centres unmarked) [Compound I-135] | 89 | – | 1.8
80 | – | COc1cc(N2CCc3nc(NC(=O)Nc4cn(C)nc4C(=O)NC4CCOC4)sc3C2)nc(OC)n1 (centres unmarked) [Compound I-156] | ≥ 95 | – | 2.7
≥ 95 | – | COc1cc(N2CCc3nc(NC(=O)Nc4cnccc4C(=O)NC(C)C)sc3C2)nc(OC)n1 [Compound I-27] | 94.1 | (−) (When 3 μmol/L or less, the compound is shown as (−)) | 2
≥ 95 | – | COc1cc(N2CCc3nc(NC(=O)Nc4cnccc4OCCC(C)C)sc3C2)nc(OC)n1 [Compound I-97] | 80.4 | (−) (When 3 μmol/L or less, the compound is shown as (−)) | –
≥ 95 | 96.8 | COc1cc(N2CCc3nc(NC(=O)Nc4cn(C)nc4C(=O)NCC#N)sc3C2)nc(OC)n1 [Compound I-152] | ≥ 95 | – | 4.7
91 | – | CS(=O)(=O)c1cncc(N2CCc3nc(NC(=O)Nc4ccccc4C(=O)NCC#N)sc3C2)c1 [Compound I-210] | 93 | (−) (When 3 μmol/L or less, the compound is shown as (−)) | –
≥ 95 | – | COc1cc(N2CCc3nc(NC(=O)Nc4ccccc4C(=O)NC4CCCCC4O)sc3C2)nc(OC)n1 (centres unmarked) [Compound I-161] | 93 | – | 6.1
≥ 95 | 88.4 | COc1cc(N2CCc3nc(NC(=O)Nc4ccccc4C(=O)NC4CCCC4O)sc3C2)nc(OC)n1 (centres unmarked) [Compound I-134] | 93 | – | 1.7
≥ 95 | 98.7 | [2H]C([2H])([2H])[C@@H](CO)NC(=O)c1ccccc1NC(=O)Nc1nc2c(s1)CN(c1cc(OC)nc(OC)n1)CC2 [Compound I-154] | ≥ 95 | – | –
87 | 96.2 | COc1cc(N2CCc3nc(NC(=O)Nc4ccccc4C(=O)NCC(C)O)sc3C2)nc(OC)n1 (centres unmarked) [Compound I-157] | ≥ 95 | – | 0.4
92 | 91.2 | COc1cc(N2CCc3nc(NC(=O)Nc4ccccc4C(=O)NN4CCOCC4)sc3C2)nc(OC)n1 [Compound I-193] | 81 | – | –
